US10829478B2, “5-[3-[piperazin-1-yl]-3-oxo-propyl]-imidazolidine-2,4-dione derivatives as ADAMTS 4 and 5 inhibitors for treating e.g. osteoarthritis” (Galapagos NV, priority 2016, dated 2020)
Like-named read-outs stand apart in the source and are kept apart here.

How the values were obtained:
human ADAMTS6 = human ADAMTS6 (Homo sapiens (Human), UniProt Q9UKP5); experiment: hADAMTS-6 fluorescent based protease assay (520 MMP FRET substrate XII); type: biochemical; conditions: 37° C. for 2 h; read-out: hADAMTS-6 potency IC50
Sequence of human ADAMTS6 (Q9UKP5 other isoform, or with tags, fused parts or gaps): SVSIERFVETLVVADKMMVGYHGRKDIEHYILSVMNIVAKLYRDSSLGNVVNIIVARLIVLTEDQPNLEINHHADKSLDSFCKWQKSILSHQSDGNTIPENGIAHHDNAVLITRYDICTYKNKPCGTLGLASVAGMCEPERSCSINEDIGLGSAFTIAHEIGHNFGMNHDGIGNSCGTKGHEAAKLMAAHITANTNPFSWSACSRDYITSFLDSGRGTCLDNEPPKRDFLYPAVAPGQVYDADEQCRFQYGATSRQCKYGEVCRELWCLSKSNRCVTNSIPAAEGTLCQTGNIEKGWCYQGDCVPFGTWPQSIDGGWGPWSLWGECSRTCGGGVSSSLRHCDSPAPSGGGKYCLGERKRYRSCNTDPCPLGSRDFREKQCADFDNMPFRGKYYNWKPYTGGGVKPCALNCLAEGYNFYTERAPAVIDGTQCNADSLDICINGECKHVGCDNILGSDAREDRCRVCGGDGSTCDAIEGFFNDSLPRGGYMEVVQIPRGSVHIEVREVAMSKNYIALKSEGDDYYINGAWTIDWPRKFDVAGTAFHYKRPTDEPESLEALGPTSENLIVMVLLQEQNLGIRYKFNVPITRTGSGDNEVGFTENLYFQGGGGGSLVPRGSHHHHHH
Protocol: The IC50 value for test compounds can be determined in a fluorescent based protease assay.
The substrate contains sequence Arg-Pro-Lys-Pro-Tyr-Ala-Nva-Trp-Met-Lys (SEQ ID NO: 7) with attached a fluorescent probe and a quencher. Without ADAMTS6, the emission of the probe is quenched. If the substrate is cleaved by ADAMTS6, the emission of the probe is not quenched anymore. Inhibition of ADAMTS6 activity, will result in a decrease of the signal.
To perform the assay, 4 μL of a dilution series of compound in water, starting from 20 μM highest concentration, ⅕ dilution, is added to the wells. 2 ng ADAMTS6 enzyme is diluted in 25 mM Tris pH8.0, 0.05% CHAPS, 2.5 mM CaCl2 in a total volume of 26 μL (final concentration 0.73 nM). The reaction is started by addition of 10 μL of 1 μM 520 MMP FRET Substrate XII (final concentration, diluted in same buffer as described above) and the mixture is incubated at 37° C. for 2 h. […] After this incubation, cleavage of the substrate is measured using the Envision (Perkin Elmer, exc485/em530).

human ADAMTS-5 = human ADAMTS-5 (Homo sapiens (Human), UniProt Q9UNA0); experiment: hADAMTS-5 TBIS-1 cleavage assay, Protocol 3; type: biochemical; conditions: 90 min at 37° C., read-out: hADAMTS-5 potency IC50
Sequence of human ADAMTS-5 (Q9UNA0 262-930): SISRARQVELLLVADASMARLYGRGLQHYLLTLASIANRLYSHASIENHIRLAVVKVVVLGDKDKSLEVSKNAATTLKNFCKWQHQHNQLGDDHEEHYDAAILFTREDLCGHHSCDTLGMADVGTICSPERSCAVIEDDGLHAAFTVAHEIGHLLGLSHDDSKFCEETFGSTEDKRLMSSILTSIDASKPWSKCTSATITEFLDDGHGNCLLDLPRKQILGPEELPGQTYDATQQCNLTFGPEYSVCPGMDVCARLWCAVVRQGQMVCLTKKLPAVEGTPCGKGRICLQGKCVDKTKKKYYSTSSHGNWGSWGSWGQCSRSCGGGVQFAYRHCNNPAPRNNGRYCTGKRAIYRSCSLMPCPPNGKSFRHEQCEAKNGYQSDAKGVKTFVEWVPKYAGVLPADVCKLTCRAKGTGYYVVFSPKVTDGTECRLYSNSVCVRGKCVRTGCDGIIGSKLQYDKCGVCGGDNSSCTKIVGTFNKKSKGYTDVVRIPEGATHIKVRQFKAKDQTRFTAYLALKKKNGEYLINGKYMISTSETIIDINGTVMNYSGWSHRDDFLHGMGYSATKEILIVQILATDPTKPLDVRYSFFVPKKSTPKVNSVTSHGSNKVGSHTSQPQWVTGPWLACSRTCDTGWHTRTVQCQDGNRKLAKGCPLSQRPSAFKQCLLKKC
Protocol: The reaction is initiated by adding to the assay plate TBIS-1 (10 μL, 4.5 μM, Anaspec) in the same buffer.
Finally, the fluorescence is read on the Envision (Perkin Elmer) after an incubation of 90 min at 37° C. (Excitation 485 nm, emission 530).

human TACE = human TACE (Homo sapiens (Human), UniProt P78536); experiment: biochemical
Sequence of human TACE (P78536 215-671): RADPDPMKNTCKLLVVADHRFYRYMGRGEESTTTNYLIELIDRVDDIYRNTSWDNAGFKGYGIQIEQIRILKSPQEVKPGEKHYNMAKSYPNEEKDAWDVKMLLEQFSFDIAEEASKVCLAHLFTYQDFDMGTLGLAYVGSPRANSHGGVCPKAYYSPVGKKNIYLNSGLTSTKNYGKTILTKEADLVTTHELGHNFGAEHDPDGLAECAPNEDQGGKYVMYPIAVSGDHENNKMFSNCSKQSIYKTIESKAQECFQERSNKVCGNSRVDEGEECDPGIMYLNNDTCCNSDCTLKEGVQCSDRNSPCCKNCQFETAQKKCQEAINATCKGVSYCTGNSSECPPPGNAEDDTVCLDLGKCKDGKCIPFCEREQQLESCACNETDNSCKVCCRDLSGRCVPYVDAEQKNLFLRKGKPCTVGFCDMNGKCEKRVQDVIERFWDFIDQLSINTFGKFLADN
Protocol: Finally, the fluorescence is read on the Envision (Perkin Elmer) after an incubation of 75 min at room temperature (Excitation 485 nm, Emission 530).

human ADAMTS4 = human ADAMTS4 (Homo sapiens (Human), UniProt O75173); experiment: hADAMTS-4 TBIS-1 cleavage assay, Protocol 2; type: biochemical
Sequence of human ADAMTS4 (O75173 213-837): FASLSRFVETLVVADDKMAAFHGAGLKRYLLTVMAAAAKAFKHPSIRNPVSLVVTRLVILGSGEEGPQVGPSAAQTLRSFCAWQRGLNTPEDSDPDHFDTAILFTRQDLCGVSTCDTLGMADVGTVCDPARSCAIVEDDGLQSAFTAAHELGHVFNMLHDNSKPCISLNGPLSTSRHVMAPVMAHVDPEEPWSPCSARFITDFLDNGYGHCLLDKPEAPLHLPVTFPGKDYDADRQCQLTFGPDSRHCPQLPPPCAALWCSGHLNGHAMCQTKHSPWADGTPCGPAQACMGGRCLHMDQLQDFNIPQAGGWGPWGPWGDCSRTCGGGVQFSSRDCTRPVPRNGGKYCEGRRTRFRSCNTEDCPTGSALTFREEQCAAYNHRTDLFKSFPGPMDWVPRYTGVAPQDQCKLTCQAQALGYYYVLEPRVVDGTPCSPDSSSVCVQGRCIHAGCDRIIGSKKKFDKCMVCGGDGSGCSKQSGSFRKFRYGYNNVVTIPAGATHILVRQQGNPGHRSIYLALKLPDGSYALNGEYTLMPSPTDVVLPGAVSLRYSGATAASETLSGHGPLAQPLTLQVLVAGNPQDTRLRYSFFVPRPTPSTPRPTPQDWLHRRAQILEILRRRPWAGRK

human MMP13 = human MMP13 (Homo sapiens (Human), UniProt P45452); experiment: hMMP13 assay, Protocol 1 (390 MMP FRET Substrate I, Chemicon enzyme); type: biochemical; conditions: Protocol 1, human MMP13 (Chemicon), read-out: hMMP-13 potency IC50
Protocol: Human MMP13 is preactivated by incubated the enzyme in the same buffer complemented with 1 mM freshly prepared p-Aminophenylmercuric acetate (AMPA) for 1 h at 37° C.

[1] = Protocol 2, 180 min at 37° C., read-out: ADAMTS4 potency IC50

SMILES	IC50 (human ADAMTS6)	IC50 (human ADAMTS-5)	IC50 (human TACE)	IC50 (human ADAMTS4)	IC50 (human MMP13)	IC50 (human ADAMTS4; [1])
COCC1(CC(C)C(=O)N2CCN(c3cc(F)c(F)c(OC)c3)[C@@H](C)C2)NC(=O)NC1=O (mixture of isomers) [Cpd 46, 5-[3-[(3S)-4-(3,4-difluoro-5-methoxy-phenyl)-3-methyl-piperazin-1-yl]-2-methyl-3-oxo-propyl]-5-(methoxymethyl)imidazolidine-2,4-dione]	0.001 to 25 nM	25 to 50 nM	> 100 nM	25 to 50 nM	> 100 nM	
COc1cc(N2CCN(C(=O)[C@@H](C)C[C@@]3(c4ccccn4)NC(=O)NC3=O)C[C@@H]2C)cc(F)c1F (stereo in doubt) [Cpd 49, 5-[3-[(3 S)-4-(3,4-difluoro-5-methoxy-phenyl)-3-methyl-piperazin-1-yl]-2-methyl-3-oxo-propyl]-5-(2-pyridyl)imidazolidine-2,4-dione]	0.001 to 25 nM	25 to 50 nM	> 100 nM	50 to 100 nM		
COc1cc(F)cc(N2CCN(C(=O)CC[C@@]3(C)NC(=O)NC3=O)CC2)c1 [Cpd 19, (R)-5-[3-[4-(3-fluoro-5-methoxy-phenyl)piperazin-1-yl]-3-oxo-propyl]-5-methyl-imidazolidine-2,4-dione]	50 to 100 nM	> 100 nM	> 100 nM		> 100 nM	> 100 nM
COc1ccc(C)c(N2CCN(C(=O)CCC3(C)NC(=O)NC3=O)CC2)c1 (centres unmarked) [Cpd 32, 5-[3-[4-(5-methoxy-2-methyl-phenyl)piperazin-1-yl]-3-oxo-propyl]-5-methyl-imidazolidine-2,4-dione]	> 100 nM	> 100 nM				
COc1cccc(N2CCN(C(=O)CCC3(C)NC(=O)NC3=O)CC2)c1C (centres unmarked) [Cpd 33, 5-[3-[4-(3-methoxy-2-methyl-phenyl)piperazin-1-yl]-3-oxo-propyl]-5-methyl-imidazolidine-2,4-dione]	> 100 nM	> 100 nM				
COc1ccc(C)c(N2CCN(C(=O)CCC3(C)NC(=O)NC3=O)C[C@@H]2C)c1 (stereo partly drawn) [Cpd 35, 5-[3-[(3S)-4-(5-methoxy-2-methyl-phenyl)-3-methyl-piperazin-1-yl]-3-oxo-propyl]-5-methyl-imidazolidine-2,4-dione]	> 100 nM	> 100 nM				
COc1cncc(N2CCN(C(=O)CCC3(C4CC4)NC(=O)NC3=O)C[C@@H]2C)c1 (stereo partly drawn) [Cpd 60, 5-cyclopropyl-5-[3-[(3S)-4-(5-methoxy-3-pyridyl)-3-methyl-piperazin-1-yl]-3-oxo-propyl]imidazolidine-2,4-dione]	> 100 nM	> 100 nM	> 100 nM			> 100 nM
COc1cc(N2CCN(C(=O)CC[C@@]3(C)NC(=O)NC3=O)C[C@@H]2C)c(C)cc1F [Cpd 66, (5R)-5-[3-[(3S)-4-(4-fluoro-5-methoxy-2-methyl-phenyl)-3-methyl-piperazin-1-yl]-3-oxo-propyl]-5-methyl-imidazolidine-2,4-dione]	50 to 100 nM	> 100 nM	> 100 nM			
COc1c(Cl)cccc1N1CCN(C(=O)CC[C@@]2(C)NC(=O)NC2=O)C[C@@H]1C [Cpd 69, (5R)-5-[3-[(3 S)-4-(3-chloro-2-methoxy-phenyl)-3-methyl-piperazin-1-yl]-3-oxo-propyl]-5-methyl-imidazolidine-2,4-dione]	> 100 nM	> 100 nM	> 100 nM			
CCc1cccc(N2CCN(C(=O)CC[C@@]3(C)NC(=O)NC3=O)CC2)c1 [Cpd 70, (5R)-5-[3-[4-(3-ethylphenyl)piperazin-1-yl]-3-oxo-propyl]-5-methyl-imidazolidine-2,4-dione]	> 100 nM	> 100 nM	> 100 nM			
COc1cc(Cl)ccc1N1CCN(C(=O)CC[C@@]2(C)NC(=O)NC2=O)CC1 [Cpd 73, (5R)-5-[3-[4-(4-chloro-2-methoxy-phenyl)piperazin-1-yl]-3-oxo-propyl]-5-methyl-imidazolidine-2,4-dione]	> 100 nM	> 100 nM	> 100 nM			
COc1cc(Cl)ccc1N1CCN(C(=O)CC[C@@]2(C)NC(=O)NC2=O)C[C@@H]1C [Cpd 76, (5R)-5-[3-[(3 S)-4-(4-chloro-2-methoxy-phenyl)-3-methyl-piperazin-1-yl]-3-oxo-propyl]-5-methyl-imidazolidine-2,4-dione]	> 100 nM	> 100 nM	> 100 nM			
COc1cc(F)ccc1N1CCN(C(=O)CC[C@@]2(C)NC(=O)NC2=O)CC1 [Cpd 78, (5R)-5-[3-[4-(4-fluoro-2-methoxy-phenyl)piperazin-1-yl]-3-oxo-propyl]-5-methyl-imidazolidine-2,4-dione]	> 100 nM	> 100 nM	> 100 nM			
COc1ccc(Cl)cc1N1CCN(C(=O)CC[C@@]2(C)NC(=O)NC2=O)C[C@@H]1C [Cpd 91, (5R)-5-[3-[(3 S)-4-(5-chloro-2-methoxy-phenyl)-3-methyl-piperazin-1-yl]-3-oxo-propyl]-5-methyl-imidazolidine-2,4-dione]	> 100 nM	> 100 nM	> 100 nM			
COc1cc(Cl)c(Cl)cc1N1CCN(C(=O)CC[C@@]2(C)NC(=O)NC2=O)CC1 [Cpd 94, (5R)-5-[3-[4-(4,5-dichloro-2-methoxy-phenyl)piperazin-1-yl]-3-oxo-propyl]-5-methyl-imidazolidine-2,4-dione]	0.001 to 25 nM	> 100 nM	> 100 nM			
COc1cc(Cl)c(C)cc1N1CCN(C(=O)CC[C@@]2(C)NC(=O)NC2=O)C[C@@H]1C [Cpd 95, (5R)-5-[3-[(3S)-4-(4-chloro-2-methoxy-5-methyl-phenyl)-3-methyl-piperazin-1-yl]-3-oxo-propyl]-5-methyl-imidazolidine-2,4-dione]	0.001 to 25 nM	> 100 nM	> 100 nM			
COc1cc(N2CCN(C(=O)CC[C@@]3(C)NC(=O)NC3=O)C[C@@H]2C)cc(OC)c1Cl [Cpd 110, (5R)-5-[3-[(3 S)-4-(4-chloro-3,5-dimethoxy-phenyl)-3-methyl-piperazin-1-yl]-3-oxo-propyl]-5-methyl-imidazolidine-2,4-dione]	0.001 to 25 nM	> 100 nM				
CCOc1cc(N2CCN(C(=O)CC[C@@]3(C)NC(=O)NC3=O)C[C@@H]2C)ccc1Cl [Cpd 111, (5R)-5-[3-[(3 S)-4-(4-chloro-3-ethoxy-phenyl)-3-methyl-piperazin-1-yl]-3-oxo-propyl]-5-methyl-imidazolidine-2,4-dione]	0.001 to 25 nM	> 100 nM				
COc1cc(F)c(F)cc1N1CCN(C(=O)CC[C@@]2(C)NC(=O)NC2=O)C[C@@H]1C [Cpd 113, (5R)-5-[3-[(3 S)-4-(4,5-difluoro-2-methoxy-phenyl)-3-methyl-piperazin-1-yl]-3-oxo-propyl]-5-methyl-imidazolidine-2,4-dione]	> 100 nM	> 100 nM				
COc1cc(N2CCN(C(=O)CC[C@H]3NC(=O)NC3=O)C[C@H]2C)cc(F)c1F [Cpd 127, (5R)-5-[3-[(3R)-4-(3,4-difluoro-5-methoxy-phenyl)-3-methyl-piperazin-1-yl]-3-oxo-propyl]imidazolidine-2,4-dione]	> 100 nM	> 100 nM				
COc1ccc(C)c(N2CCN(C(=O)CC[C@H]3NC(=O)NC3=O)CC2)c1 [Cpd 136, (5R)-5-[3-[4-(5-methoxy-2-methyl-phenyl)piperazin-1-yl]-3-oxo-propyl]imidazolidine-2,4-dione]	> 100 nM	> 100 nM				
COc1cccc(N2CCN(C(=O)CC[C@H]3NC(=O)NC3=O)CC2)c1C [Cpd 137, (5R)-5-[3-[4-(3-methoxy-2-methyl-phenyl)piperazin-1-yl]-3-oxo-propyl]imidazolidine-2,4-dione]	> 100 nM	> 100 nM				
COc1ccc(C)c(N2CCN(C(=O)CC[C@H]3NC(=O)NC3=O)C[C@@H]2C)c1 [Cpd 140, (5R)-5-[3-[(3 S)-4-(5-methoxy-2-methyl-phenyl)-3-methyl-piperazin-1-yl]-3-oxo-propyl]imidazolidine-2,4-dione]	> 100 nM	> 100 nM				
CCOc1cc(N2CCN(C(=O)CC[C@H]3NC(=O)NC3=O)CC2)cc(OC)c1Cl [Cpd 149, (5R)-5-[3-[4-(4-chloro-3-ethoxy-5-methoxy-phenyl)piperazin-1-yl]-3-oxo-propyl]imidazolidine-2,4-dione]	50 to 100 nM	> 100 nM	> 100 nM			
COc1cc(N2CCN(C(=O)CC[C@H]3NC(=O)NC3=O)CC2)cc(OC)c1F [Cpd 151, (5R)-5-[3-[4-(4-fluoro-3,5-dimethoxy-phenyl)piperazin-1-yl]-3-oxo-propyl]imidazolidine-2,4-dione]	25 to 50 nM	> 100 nM	> 100 nM			
